Converted amounts (≈) assume the structure as drawn. Read-outs that look alike come from different tables or passages of the source. Positions of bridges follow the written chain, without caps; N, C: chain ends. Non-standard residues stand in square brackets, D forms with d. Residues, ends and D or L forms follow the SMILES beside them. ξ: configuration not given here. Lys(N3) = [N-]=[N+]=NCCCC[C@H](N)C(=O)O; R8 = C=CCCCCCC[C@@](C)(N)C(=O)O; ξαMeF = CC(N)(Cc1ccccc1)C(=O)O; Cba = N[C@@H](CC1CCC1)C(=O)O; S5 = C=CCCC[C@](C)(N)C(=O)O; hSer = N[C@@H](CCO)C(=O)O; βAla = NCCC(=O)O
Experiments:
in vitro = details: Nanoclick permeability assay EC50
How it was run: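 Azido-peptide permeability was read as loss of NanoBRET signal (donor 450 nm, acceptor 610 nm) after adding NanoBret618-azide at 10 μM final.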

[1] = Solubility assay (kinetic solubility, PBS pH 7); format: physicochemical
How it was run: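 Quantitation uses an external standard at 100 µM, prepared from 10 mM stock in acetonitrile:methanol:DMSO (10:80:10). Solubility (µM) = (peak area of sample ÷ peak area of standard) × standard concentration.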

[2] = Lactate dehydrogenase (LDH) release assay; format: cell-based
How it was run: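 HCT116 cells stably carrying a p53-responsive β-lactamase reporter were seeded at 8000 cells per well with a final DMSO level of 0.5%. Membrane integrity was assessed by lactate dehydrogenase release using a homogeneous fluorometric kit. Values are geometric means of at least three biological replicates.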

[3] = Experimental LogD (partition coefficient); details: for logD: not stated, Partition Coeff LogD
Ca Ski cell line = details: 72 h
Protocol: (§1) The medium for CellSensor™ p53RE-bla HCT-116 cells was McCoy’s 5 A Medium (GIBCO16600-002) supplied with 10% FBS (Hyclone, SH30406.05), 100 U/100ug/ml of Pen/Strep (SolarBio, P1400) and 5 μg/ml of blasticidin (GIBCO, A11139). The medium for Ca Ski cells was RPMI1640 (Hyclone, SH3080901B) supplied with 10% FBS and 100 U/100ug/ml of Pen/Strep. All cells were kept in humidified incubators with 5% CO2 at 37 °C. Culture media was changed after one day of subculturing and cells were passed again when there was 70–80% confluence. One day before the assay, the cells were trypsinized, collected, counted and viability was determined. […] The plates were kept in humidified incubators with 5% CO2 at 37 °C overnight. Compounds were prepared as a 10 point, 3x serial dilution in 100% DMSO, starting from a top concentration of 10 mM. […] At the end of the incubation the assay plate was equilibrated at room temperature for approximately 30 minutes prior to the addition of 25 uL of CellTiter-Glo® 2.0 Reagent. The assay plate was mixed for 2 minutes on an orbital shaker to induce cell lysis. Next, the plate was incubated at room temperature for 10 minutes to stabilize the luminescent signal prior to recording the luminescence on a plate reader.

[4] = system: CellSensor p53RE-bla HCT-116 Cell Line; details: 72 h
Protocol: as §1

[5] = pH 7, aqueous buffer, kinetic from dmso stock, pH 7, PBS, read-out: Solubility

Row | SMILES | cell entry EC50 (in vitro) | solubility kinetic [1, 5] | EC50 ([2]; LDH: Cytotoxicity assay EC50) | logD [3] | EC50 (Ca Ski cell line) | EC50 [4] | EC50 ([2]; LDH: Cytotoxicity assay: EC50) | Solubility ([1]; pH 7, PBS) | Partition Coeff LogD [3] | solubility kinetic ([1]; pH 7, Solubility)
1 | CC(=O)N[C@@H](CCCCN=[N+]=[N-])C(=O)NCCC(=O)N[C@@H](CC(C)C)C(=O)N[C@H](C(=O)N[C@@H](Cc1ccccc1)C(=O)N[C@]1(C)CCCCCCC=CCCC[C@@](C)(C(=O)N[C@@H](C)C(=O)N[C@@H](CCO)C(=O)N[C@@H](C)C(=O)N[C@@H](C)C(=O)N[C@@H](C)C(=O)N[C@H](C)C(N)=O)NC(=O)[C@H](CC2CCC2)NC(=O)[C@H](CCC(N)=O)NC(=O)[C@H](C)NC(=O)[C@H](Cc2c[nH]c3ccccc23)NC(=O)[C@H](Cc2ccc(O)cc2)NC(=O)[C@H](CCC(=O)O)NC1=O)[C@@H](C)O [MP-831] (Ac-[Lys(N3)][βAla]LTF[R8]EYWAQ[Cba][S5]A[hSer]AAA[dA]-NH2; staple 6-13) | > 10 µM | 175 µM (≈ 385 µg/mL) | > 50.7 µM | 3.13 | > 49.8 µM | 0.428 µM | – | – | – | –
2 | CC(=O)N[C@@H](CCCCN=[N+]=[N-])C(=O)NCCC(=O)N[C@@H](CC(C)C)C(=O)N[C@H](C(=O)N[C@@H](Cc1ccccc1)C(=O)N[C@]1(C)CCCCCCC=CCCC[C@@](C)(C(=O)N[C@@H](C)C(=O)N[C@@H](C)C(=O)N[C@@H](C)C(=O)N[C@@H](C)C(=O)N[C@@H](C)C(=O)N[C@@H](CCC(=O)O)C(N)=O)NC(=O)[C@H](CC2CCC2)NC(=O)[C@H](CCC(N)=O)NC(=O)[C@H](C)NC(=O)[C@H](Cc2c[nH]c3ccccc23)NC(=O)[C@H](Cc2ccc(O)cc2)NC(=O)[C@H](CCC(=O)O)NC1=O)[C@@H](C)O [MP-836] (Ac-[Lys(N3)][βAla]LTF[R8]EYWAQ[Cba][S5]AAAAAE-NH2; staple 6-13) | 1.77 µM | 164 µM (≈ 365 µg/mL) | > 50.7 µM | 2.43 | > 49.8 µM | 1.05 µM | – | – | – | –
3 | CC(=O)N[C@@H](CCCCN=[N+]=[N-])C(=O)NCCC(=O)N[C@@H](CC(C)C)C(=O)N[C@H](C(=O)N[C@@H](Cc1ccccc1)C(=O)N[C@]1(C)CCCCCCC=CCCC[C@@](C)(C(=O)N[C@@H](CO)C(=O)N[C@@H](CCC(=O)O)C(=O)N[C@@H](C)C(N)=O)NC(=O)[C@H](CC2CCC2)NC(=O)[C@H](CCC(N)=O)NC(=O)[C@H](C)NC(=O)[C@H](Cc2c[nH]c3ccccc23)NC(=O)[C@H](Cc2ccc(O)cc2)NC(=O)[C@H](CCC(=O)O)NC1=O)[C@@H](C)O [MP-898] | 0.808 µM | 145 µM (≈ 294 µg/mL) | – | 2.4 | > 49.8 µM | 7.5 µM | > 50.7 µM | – | – | –
4 | CC(=O)N[C@@H](CCCCN=[N+]=[N-])C(=O)NCCC(=O)N[C@@H](CC(C)C)C(=O)N[C@H](C(=O)N[C@@H](Cc1ccccc1)C(=O)N[C@]1(C)CCCCCCC=CCCC[C@@](C)(C(=O)N[C@@H](C)C(=O)N[C@@H](C)C(=O)N[C@@H](Cc2ccccc2)C(=O)N[C@@H](C)C(=O)N[C@@H](C)C(=O)NC(C)(Cc2ccccc2)C(N)=O)NC(=O)[C@H](CC2CCC2)NC(=O)[C@H](CCC(N)=O)NC(=O)[C@H](C)NC(=O)[C@H](Cc2c[nH]c3ccccc23)NC(=O)[C@H](Cc2ccc(O)cc2)NC(=O)[C@H](CCC(=O)O)NC1=O)[C@@H](C)O (stereo partly shown) [MP-288] (Ac-[Lys(N3)][βAla]LTF[R8]EYWAQ[Cba][S5]AAFAA[ξαMeF]-NH2; staple 6-13) | 1.58 µM | 12 µM (≈ 28 µg/mL) | – | 4.11 | > 49.8 µM | 2.74 µM | > 50.7 µM | – | – | –
5 | CC(=O)N[C@@H](CCCCN=[N+]=[N-])C(=O)NCCC(=O)N[C@@H](CC(C)C)C(=O)N[C@H](C(=O)N[C@@H](Cc1ccccc1)C(=O)N[C@]1(C)CCCCCCC=CCCC[C@@](C)(C(=O)N[C@@H](C)C(=O)N[C@@H](CC(C)C)C(=O)N[C@@H](C)C(=O)N[C@@H](C)C(=O)N[C@@H](C)C(=O)N[C@H](C)C(N)=O)NC(=O)[C@H](CC2CCC2)NC(=O)[C@H](CCC(N)=O)NC(=O)[C@H](C)NC(=O)[C@H](Cc2c[nH]c3ccccc23)NC(=O)[C@H](Cc2ccc(O)cc2)NC(=O)[C@H](CCC(=O)O)NC1=O)[C@@H](C)O [MP-968] (Ac-[Lys(N3)][βAla]LTF[R8]EYWAQ[Cba][S5]ALAAA[dA]-NH2; staple 6-13) | 4.2 µM | – | > 50.7 µM | – | 43.1 µM | 1.41 µM | – | Poorly Behaved | Poorly Behaved | –
6 | CC(=O)N[C@@H](CCCCN=[N+]=[N-])C(=O)NCCC(=O)N[C@@H](CC(C)C)C(=O)N[C@H](C(=O)N[C@@H](Cc1ccccc1)C(=O)N[C@]1(C)CCCCCCC=CCCC[C@@](C)(C(=O)N[C@@H](C)C(=O)N[C@@H](C)C(=O)N[C@@H](C)C(=O)N[C@@H](C)C(=O)N[C@@H](CCC(=O)O)C(=O)N[C@H](C)C(N)=O)NC(=O)[C@H](CC2CCC2)NC(=O)[C@H](CCC(N)=O)NC(=O)[C@H](C)NC(=O)[C@H](Cc2c[nH]c3ccccc23)NC(=O)[C@H](Cc2ccc(O)cc2)NC(=O)[C@H](CCC(=O)O)NC1=O)[C@@H](C)O [MP-837] (Ac-[Lys(N3)][βAla]LTF[R8]EYWAQ[Cba][S5]AAAAE[dA]-NH2; staple 6-13) | 1.52 µM | 160 µM (≈ 356 µg/mL) | > 50.7 µM | 2.53 | > 49.8 µM | 0.66 µM | – | – | – | –
7 | CC(=O)N[C@@H](CCCCN=[N+]=[N-])C(=O)NCCC(=O)N[C@@H](CC(C)C)C(=O)N[C@H](C(=O)N[C@@H](Cc1ccccc1)C(=O)N[C@]1(C)CCCCCCC=CCCC[C@@](C)(C(=O)N[C@@H](CCC(=O)O)C(=O)N[C@@H](C)C(=O)N[C@@H](Cc2ccccc2)C(=O)N[C@@H](C)C(=O)N[C@@H](CCC(N)=O)C(=O)N[C@@H](Cc2ccccc2)C(N)=O)NC(=O)[C@H](CC2CCC2)NC(=O)[C@H](CCC(N)=O)NC(=O)[C@H](C)NC(=O)[C@H](Cc2c[nH]c3ccccc23)NC(=O)[C@H](Cc2ccc(O)cc2)NC(=O)[C@H](CCC(=O)O)NC1=O)[C@@H](C)O [MP-832] (Ac-[Lys(N3)][βAla]LTF[R8]EYWAQ[Cba][S5]EAFAQF-NH2; staple 6-13) | 4.88 µM | 157 µM (≈ 382 µg/mL) | > 50.7 µM | 3.01 | 22.3 µM | 4.17 µM | – | – | – | –
8 | CC(=O)N[C@@H](CCCCN=[N+]=[N-])C(=O)NCCC(=O)N[C@@H](CC(C)C)C(=O)N[C@H](C(=O)N[C@@H](Cc1ccccc1)C(=O)N[C@]1(C)CCCCCCC=CCCC[C@@](C)(C(=O)N[C@@H](C)C(=O)N[C@@H](C)C(=O)N[C@@H](C)C(=O)N[C@@H](C)C(=O)N[C@@H](C)C(=O)N[C@@H](C)C(=O)N[C@@H](C)C(=O)N[C@@H](C)C(=O)N[C@@H](C)C(N)=O)NC(=O)[C@H](CC2CCC2)NC(=O)[C@H](CCC(N)=O)NC(=O)[C@H](C)NC(=O)[C@H](Cc2c[nH]c3ccccc23)NC(=O)[C@H](Cc2ccc(O)cc2)NC(=O)[C@H](CCC(=O)O)NC1=O)[C@@H](C)O [MP-759] (Ac-[Lys(N3)][βAla]LTF[R8]EYWAQ[Cba][S5]AAAAAAAAA-NH2; staple 6-13) | 3.41 µM | 15 µM (≈ 35.7 µg/mL) | – | 3.49 | 25.9 µM | 2.44 µM | > 50.7 µM | – | – | –
9 | CC(=O)N[C@@H](CCCCN=[N+]=[N-])C(=O)NCCC(=O)N[C@@H](CC(C)C)C(=O)N[C@H](C(=O)N[C@@H](Cc1ccccc1)C(=O)N[C@]1(C)CCCCCCC=CCCC[C@@](C)(C(=O)N[C@@H](C)C(=O)N[C@H](C)C(=O)N[C@@H](C)C(=O)N[C@H](C)C(=O)N[C@@H](C)C(=O)N[C@H](C)C(N)=O)NC(=O)[C@H](CC2CCC2)NC(=O)[C@H](CCC(N)=O)NC(=O)[C@H](C)NC(=O)[C@H](Cc2c[nH]c3ccccc23)NC(=O)[C@H](Cc2ccc(O)cc2)NC(=O)[C@H](CCC(=O)O)NC1=O)[C@@H](C)O [MP-056] (Ac-[Lys(N3)][βAla]LTF[R8]EYWAQ[Cba][S5]A[dA]A[dA]A[dA]-NH2; staple 6-13) | 5.21 µM | 147 µM (≈ 319 µg/mL) | – | 2.83 | > 49.8 µM | 3.3 µM | > 50.7 µM | – | – | 157 µM (≈ 340 µg/mL)

Reference: PMC10786919, “Design-rules for stapled peptides with in vivo activity and their application to Mdm2/X antagonists” (Nature Communications, 2024)
